Source: publication PMC2216945 (The Journal of General Physiology, 1995)

Molecular target: cystic fibrosis transmembrane conductance regulator (CFTR) (Homo sapiens, UniProt P13569)
Assay: inside-out patch clamp, inhibition of ATP-dependent channel open probability
Type: cell-based

cystic fibrosis transmembrane conductance regulator (CFTR), sequence (P13569 whole entry): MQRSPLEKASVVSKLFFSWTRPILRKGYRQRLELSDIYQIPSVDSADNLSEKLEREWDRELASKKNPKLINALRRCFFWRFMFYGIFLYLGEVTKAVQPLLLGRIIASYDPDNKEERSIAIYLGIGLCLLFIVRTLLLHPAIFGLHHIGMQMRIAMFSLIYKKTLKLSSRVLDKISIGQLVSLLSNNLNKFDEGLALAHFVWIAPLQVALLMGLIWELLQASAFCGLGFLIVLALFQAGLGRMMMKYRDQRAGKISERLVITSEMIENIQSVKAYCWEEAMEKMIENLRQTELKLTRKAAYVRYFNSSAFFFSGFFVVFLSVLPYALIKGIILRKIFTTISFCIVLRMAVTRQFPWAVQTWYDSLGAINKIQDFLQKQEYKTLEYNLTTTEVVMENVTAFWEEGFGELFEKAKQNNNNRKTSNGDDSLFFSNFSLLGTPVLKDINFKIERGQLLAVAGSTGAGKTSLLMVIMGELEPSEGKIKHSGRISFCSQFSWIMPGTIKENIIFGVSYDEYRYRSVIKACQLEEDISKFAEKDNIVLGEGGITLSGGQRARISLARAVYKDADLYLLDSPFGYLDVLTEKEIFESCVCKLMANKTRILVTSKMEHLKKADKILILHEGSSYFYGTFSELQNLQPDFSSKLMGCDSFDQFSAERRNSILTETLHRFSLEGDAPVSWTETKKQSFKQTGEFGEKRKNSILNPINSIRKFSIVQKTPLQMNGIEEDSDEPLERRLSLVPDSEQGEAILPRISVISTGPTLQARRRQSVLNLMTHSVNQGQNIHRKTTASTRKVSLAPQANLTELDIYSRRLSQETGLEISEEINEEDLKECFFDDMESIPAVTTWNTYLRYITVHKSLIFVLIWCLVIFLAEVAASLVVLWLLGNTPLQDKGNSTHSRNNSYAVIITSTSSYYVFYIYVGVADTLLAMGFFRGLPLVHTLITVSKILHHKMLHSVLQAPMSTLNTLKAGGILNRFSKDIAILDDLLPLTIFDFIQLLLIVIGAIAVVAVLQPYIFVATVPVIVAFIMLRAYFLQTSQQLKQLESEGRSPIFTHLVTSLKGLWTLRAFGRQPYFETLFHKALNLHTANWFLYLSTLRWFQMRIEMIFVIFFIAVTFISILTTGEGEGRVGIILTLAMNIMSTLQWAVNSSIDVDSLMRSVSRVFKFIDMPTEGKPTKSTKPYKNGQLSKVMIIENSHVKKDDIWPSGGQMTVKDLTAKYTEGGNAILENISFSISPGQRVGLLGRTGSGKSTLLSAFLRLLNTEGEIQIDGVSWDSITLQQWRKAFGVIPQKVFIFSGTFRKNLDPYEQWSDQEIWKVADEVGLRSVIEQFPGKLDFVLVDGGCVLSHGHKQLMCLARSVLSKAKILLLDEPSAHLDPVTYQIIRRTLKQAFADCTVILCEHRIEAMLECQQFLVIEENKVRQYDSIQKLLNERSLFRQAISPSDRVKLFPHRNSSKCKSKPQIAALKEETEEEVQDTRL

Compound: Nc1ncnc2c1ncn2[C@@H]1O[C@H](COP(=O)(O)OP(=O)(O)O)[C@@H](O)[C@H]1O [ADP]
- Ki: 16 ± 9 µM
